# Values quoted from earlier work in patent US6670393B2, “Carbamate-based cationic lipids” (Promega Biosciences, Inc., priority 1995, dated 2003).
# Tested on: cells
compound,measurement,value
CC(C)CCC[C@@H](C)[C@H]1CC[C@H]2[C@@H]3CC=C4C[C@@H](OC(=O)NCCN(C)C)CC[C@]4(C)[C@H]3CC[C@]12C [DC-Chol],toxicity to cells (reported),lower toxicity
same,transfection (reported),more efficient transfection
